# Experimental data from ChEMBL document CHEMBL1201862, “PubChem BioAssay data set” (2004).
#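 In this assay, cells in 96-well plates receive the compound at five concentrations for 48 hours. Endpoints are linearly interpolated between the surrounding concentrations. The concentration for 50% growth inhibition is given as GI50.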 Active and inactive are the calls of the source. No stated cut-off is given here; in the data, active = GI50 up to about 1.1 µM and inactive = higher.
# Assays:
# Test in all cases: NCI tumour cell line growth inhibition, 48 h
# EKVX = tested on: EKVX
# TK-10 = tested on: TK-10
# NCI-H23 = tested on: NCI-H23
# HT-29 = tested on: HT-29
# MCF7 = tested on: MCF7
# A498 = tested on: A498
# SF-268 = tested on: SF-268
# IGROV-1 = tested on: IGROV-1
# RXF 393 = tested on: RXF 393
# OVCAR-8 = tested on: OVCAR-8
# HCT-15 = tested on: HCT-15
# 786-0 = tested on: 786-0
# LOX IMVI = tested on: LOX IMVI
# RPMI-8226 = tested on: RPMI-8226
# PC-3 = tested on: PC-3
# SNB-75 = tested on: SNB-75
# CCRF-CEM = tested on: CCRF-CEM
# T47D = tested on: T47D
# HOP-92 = tested on: HOP-92
# SR = tested on: SR
Compound,GI50 (EKVX),GI50 (TK-10),GI50 (NCI-H23),GI50 (HT-29),GI50 (MCF7),GI50 (A498),GI50 (SF-268),GI50 (IGROV-1),GI50 (RXF 393),GI50 (OVCAR-8),GI50 (HCT-15),GI50 (786-0),GI50 (LOX IMVI),GI50 (RPMI-8226),GI50 (PC-3),GI50 (SNB-75),GI50 (CCRF-CEM),GI50 (T47D),GI50 (HOP-92),GI50 (SR)
CC(C)(C)[Si](C)(C)OC1CCOC1(O)c1ccccn1 (centres undefined),> 100 µM (inactive),> 100 µM (inactive),> 100 µM (inactive),> 100 µM (inactive),> 100 µM (inactive),> 100 µM (inactive),> 100 µM (inactive),> 100 µM (inactive),> 100 µM (inactive),> 100 µM (inactive),> 100 µM,> 100 µM (inactive),> 100 µM (inactive),53.7 µM (inactive),> 100 µM (inactive),> 100 µM (inactive),88.3 µM (inactive),> 100 µM (inactive),> 100 µM (inactive),
CCOC(=O)/C=C(/C(=O)OCC)n1ccc(=O)n(Cc2cnnn2CCCCOC(C)=O)c1=O,63.8 µM (inactive),32.8 µM (inactive),> 100 µM (inactive),> 100 µM (inactive),52 µM (inactive),,> 100 µM (inactive),> 100 µM (inactive),> 100 µM (inactive),> 100 µM (inactive),> 10 µM,18.5 µM (inactive),> 100 µM (inactive),59.2 µM (inactive),> 100 µM (inactive),> 100 µM (inactive),2.2 µM (inactive),> 100 µM (inactive),0.0305 µM (active),27.9 µM (inactive)
CCC[C@H](N[S+]([O-])c1ccc(C)cc1)C(C(=O)OCC)=C(c1ccccc1)c1ccccc1 (some centres undefined),18.2 µM (inactive),28.6 µM (inactive),27.1 µM (inactive),13.9 µM (inactive),16.6 µM (inactive),19.7 µM (inactive),30.1 µM (inactive),25.1 µM (inactive),14.5 µM (inactive),27.4 µM (inactive),25.2 µM,18.1 µM (inactive),18.1 µM (inactive),18.7 µM (inactive),15 µM (inactive),17.8 µM (inactive),26 µM (inactive),16.8 µM (inactive),15.1 µM (inactive),
COc1cccc(C2c3cc4c(cc3OC(N3CCCC3)C2C)OCO4)c1OC (centres undefined),6.49 µM (inactive),5.74 µM (inactive),4.37 µM (inactive),2.65 µM (inactive),4.58 µM (inactive),,2.89 µM (inactive),2.78 µM (inactive),,2.96 µM (inactive),2.25 µM,3.89 µM (inactive),1.96 µM (inactive),3.61 µM (inactive),4.48 µM (inactive),,2.77 µM (inactive),2.47 µM (inactive),,3.03 µM (inactive)
Oc1cc(-c2ccccc2)nc2c(S)cccc12,,> 100 µM (inactive),> 100 µM (inactive),> 100 µM (inactive),> 100 µM (inactive),,> 100 µM (inactive),> 100 µM (inactive),35.9 µM (inactive),> 100 µM (inactive),> 100 µM,> 100 µM (inactive),,> 100 µM (inactive),47.3 µM (inactive),23.5 µM (inactive),> 100 µM (inactive),29 µM (inactive),63.2 µM (inactive),> 100 µM (inactive)
CCC(=O)C(c1ccccc1)c1ccccn1 (centres undefined),> 100 µM (inactive),> 100 µM (inactive),> 100 µM (inactive),> 100 µM (inactive),> 100 µM (inactive),> 100 µM (inactive),> 100 µM (inactive),> 100 µM (inactive),> 100 µM (inactive),> 100 µM (inactive),> 100 µM,> 100 µM (inactive),> 100 µM (inactive),> 100 µM (inactive),> 100 µM (inactive),> 100 µM (inactive),> 100 µM (inactive),> 100 µM (inactive),> 100 µM (inactive),
CCOC(=O)c1c2ccccc2n2c(=O)n(-c3ccccc3)nnc12,> 100 µM (inactive),> 100 µM (inactive),> 87.1 µM (inactive),,0.923 µM (active),> 21.2 µM (inactive),> 100 µM (inactive),79.3 µM (inactive),> 55.6 µM (inactive),> 100 µM (inactive),> 76.9 µM,62.4 µM (inactive),7.93 µM (inactive),15.3 µM (inactive),> 90.6 µM (inactive),27.2 µM (inactive),1.4 µM (inactive),9.08 µM (inactive),> 100 µM (inactive),
O=C(O)C1CCCN(CCc2c[nH]c3ccccc23)C1 (centres undefined),> 100 µM (inactive),> 100 µM (inactive),> 100 µM (inactive),> 100 µM (inactive),> 100 µM (inactive),> 100 µM (inactive),> 100 µM (inactive),> 100 µM (inactive),> 100 µM (inactive),> 100 µM (inactive),> 100 µM,> 100 µM (inactive),> 100 µM (inactive),> 100 µM (inactive),> 100 µM (inactive),> 100 µM (inactive),> 100 µM (inactive),> 100 µM (inactive),> 100 µM (inactive),
COC(=O)C1=C(C(=O)OC)C2OC1C1C2C2(C)C(C)=C(C)C1(C)[S+]2[O-] (centres undefined),11.5 µM (inactive),12.2 µM (inactive),6.93 µM (inactive),6.47 µM (inactive),6.28 µM (inactive),27.5 µM (inactive),9.55 µM (inactive),16.7 µM (inactive),3.37 µM (inactive),5.15 µM (inactive),4.18 µM,4.65 µM (inactive),16.6 µM (inactive),4.73 µM (inactive),16.1 µM (inactive),19.5 µM (inactive),,6.71 µM (inactive),15.8 µM (inactive),
C(#Cc1ccccc1)SC1=C(c2ccccc2)S/C(=C(\SC#Cc2ccccc2)c2ccccc2)S1,> 100 µM (inactive),> 100 µM (inactive),> 100 µM (inactive),> 100 µM (inactive),> 100 µM (inactive),,> 100 µM (inactive),> 100 µM (inactive),,> 100 µM (inactive),> 100 µM,> 100 µM (inactive),> 100 µM (inactive),,> 100 µM (inactive),> 100 µM (inactive),> 100 µM (inactive),> 100 µM (inactive),> 100 µM (inactive),> 100 µM (inactive)
C=CCC1(c2ccc(OC)cc2)C=CC(=O)CC1 (centres undefined),> 100 µM (inactive),> 100 µM (inactive),> 100 µM (inactive),> 100 µM (inactive),> 100 µM (inactive),,> 100 µM (inactive),> 100 µM (inactive),94 µM (inactive),> 100 µM (inactive),72.3 µM,> 100 µM (inactive),> 100 µM (inactive),,77.3 µM (inactive),19.4 µM (inactive),24.3 µM (inactive),> 100 µM (inactive),44.9 µM (inactive),44.3 µM (inactive)
